Read-outs that look alike come from different tables or passages of the source.
Tests used:
HBL-1, TMD8 and OCI-Ly10 = test: CFSE dilution assay by flow cytometry, ABC-DLBCL lines; format: cell-based, human; settings: viable cells at 48, 72 and 96 h
Protocol: (§1) Cell proliferation was examined using the CFSE dilution assay by flow cytometry on viable cells at 48, 72 and 96 h. […] Trypan blue exclusion and apoptosis assessed by Annexin V^+ DAPI^− flow cytometry was measured every 48 hr for a period of 14 days.
CFSE covalently labels long-lived intracellular molecules with carboxyfluorescein. Following each cell division, fluorescent molecules dilute in daughter cells, allowing comparative study of the kinetics of cell division. Cells were stained with DAPI (Sigma), followed by flow cytometry. DAPI^neg cells were gated for analysis.

OCI-Ly1 cells = test: Trypan blue exclusion and Annexin V+ DAPI- apoptosis over 14 days, control line; format: cell-based, human; settings: treated daily at the higher doses used for TMD8, 14 days
Protocol: as §1
Apoptosis was assessed by AnnexinV-APC/DAPI (BD Pharmingen) staining followed by flow cytometry.

Caspase-3/7 activity = Caspase-3/7 activity or apoptosis in cell-based assays; settings: concentrations which suppress MALT1
LZ-MALT1 = biological target: T1, LZ-MALT1 (Homo sapiens, UniProt Q9UDY8); test: Dose-effect and time-course of MALT1 inhibition (pre-incubation, then Ac-LRSR-AMC); format: biochemical; settings: pre-incubation 5 to 80 minutes
T1 construct: His tag (N); made in house; host or cells: E. coli
T1 sequence (Q9UDY8 with tags, fused parts or gaps limits assumed): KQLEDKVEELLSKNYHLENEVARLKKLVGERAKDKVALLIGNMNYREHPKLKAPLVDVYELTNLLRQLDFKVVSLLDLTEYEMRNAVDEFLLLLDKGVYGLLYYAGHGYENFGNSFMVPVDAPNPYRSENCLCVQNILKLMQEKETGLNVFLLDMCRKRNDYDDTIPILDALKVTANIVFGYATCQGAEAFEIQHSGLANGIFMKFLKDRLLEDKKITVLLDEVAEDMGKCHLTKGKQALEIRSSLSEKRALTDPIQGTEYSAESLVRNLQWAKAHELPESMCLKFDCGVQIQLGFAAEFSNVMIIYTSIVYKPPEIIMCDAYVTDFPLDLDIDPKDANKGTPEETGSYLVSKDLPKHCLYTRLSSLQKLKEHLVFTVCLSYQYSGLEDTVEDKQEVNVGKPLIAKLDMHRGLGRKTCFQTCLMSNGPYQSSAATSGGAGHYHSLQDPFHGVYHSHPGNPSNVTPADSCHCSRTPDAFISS
Protocol: The reactions were monitored in a SpectraMax M5 plate reader (Molecular Devices, Sunnyvale, Calif. USA) with excitation/emission wavelength at 360/465 nm and 20 seconds intervals. Normalized percentage of inhibition was calculated with the following formula: (M(T2-T1)−N(T2-T1))/(P(T2-T1)−N(T2-T1))*100, where M(T2-T1) is the difference signal of compound at time point 200s and 0s, N(T2-T1) is the difference signal of negative control buffer only, P(T2-T1) is the difference signal of positive control Z-VRPR-FMK.

TMD8 cells = test: Growth inhibition, ATP-based luminescent assay; format: cell-based; settings: Homo sapiens
Protocol: (§2) Cell proliferation was determined by ATP quantification using a luminescent method (CellTiter-Glo, Promega, Madison, Wis.) and Trypan blue dye-exclusion (Sigma, St. Louis, Mo.). Cell viability in drug-treated cells was normalized to their respective controls (fractional viability) and results are given as 1-fractional viability. CompuSyn software (Biosoft, Cambridge, UK) was used to determine drug concentrations inhibiting fractional growth compared to controls.
DLBCL cell lines were grown in exponential growth conditions during the 48 hr of treatment. Cell proliferation was determined by ATP quantification using a luminescent method (CellTiter-Glo, Promega, Madison, Wis.) and Trypan blue dye-exclusion (Sigma, St. Louis, Mo.). Luminescence was measured using the Synergy4 microplate reader (BioTek Instruments, Winooski, Vt.). Standard curves for each cell line were calculated by plotting the cell number (determined by the Trypan blue method) against their luminescence values and number of cells was calculated accordingly. Cell viability in drug-treated cells was normalized to their respective controls (fractional viability) and results are given as 1-fractional viability. […] Experiments were performed in triplicate.

[1] = biological target: T2, MALT1 paracaspase domain (329-728) (Homo sapiens, UniProt Q9UDY8); test: LC-MS covalent modification; format: binding
T2 construct: MALT1 paracaspase domain (329-728) presented a major peak at 55,988.4 Da
T2 sequence (Q9UDY8 329-728): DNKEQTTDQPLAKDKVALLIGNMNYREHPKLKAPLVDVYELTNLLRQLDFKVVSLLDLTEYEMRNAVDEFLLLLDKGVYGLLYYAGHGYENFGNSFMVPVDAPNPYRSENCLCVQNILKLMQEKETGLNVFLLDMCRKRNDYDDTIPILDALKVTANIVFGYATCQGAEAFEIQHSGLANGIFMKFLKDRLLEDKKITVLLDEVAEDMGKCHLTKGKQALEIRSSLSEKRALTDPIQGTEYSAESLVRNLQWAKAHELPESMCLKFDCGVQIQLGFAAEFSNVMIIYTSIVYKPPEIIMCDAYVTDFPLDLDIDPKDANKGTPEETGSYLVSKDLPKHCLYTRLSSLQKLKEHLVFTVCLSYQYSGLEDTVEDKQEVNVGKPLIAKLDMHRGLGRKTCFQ
Protocol: (§3) The final results were ranked on the predicted binding free energy and the cluster size for each docking conformation.
(§4) HPLC/ESI-MS experiments were carried out on 5 μl sample at 1 mg/ml protein concentration. Separation of proteins was performed on a HP 1100 system (Hewlett Packard, Palo Alto, Calif., USA) employing a 1 mm×150 mm LC Packings column packed with POROS R1/H (Perseptive Biosystems, Foster City, Calif., USA). The column was kept at 80° C. Samples were injected onto the column using a CTC PAL autosampler (CTC, Zwingen Switzerland) fitted with a Valco model C6UW HPLC valve (Valco, Houston, Tex., USA) and a 10 μl injection loop. HPLC was controlled by MassLynx software (Micromass, Manchester, UK). UV detection was performed at 214 nm. Eluent A was water containing 0.05% TFA. Eluent B was a 1:9 mixture of water:acetonitrile containing 0.045% TFA. A gradient from 20% B to 90% B was run in 20 minutes. The flow rate was typically 60 μl/min. The total flow from the LC system was introduced into the UV detection cell prior to introduction in the ESI source. The HPLC system was controlled and the signal from the UV detector was processed using MassLynx software. […] Data were recorded and processed using MassLynx software. […]

[2] = system: MALT1 dependent ABC-DLBCL cells HBL-1, TMD8, OCI-Ly3 and OCI-Ly10; test: Growth inhibition, MALT1 dependent cell lines; format: cell-based, human; settings: increasing concentrations, single dose, 48 hr
Protocol: Endogenous MALT1 activity was evaluated by Western blotting for A20, BCL10 and CYLD; and NF-κB activation, by phospho-IκB-α and total IκB-α. Dependence on MALT1 proteolytic activity for proliferation was tested by 50[…]μM Z-VRPR-FMK treatment for 48 hr. […] The U2932 and HLY1 ABC-DLBCL cell lines harbor mutations in TAK1 and A20, which activate NF-κB signaling downstream of MALT1.
as §2, with “CompuSyn software (Biosoft, Cambridge, UK) was used to determine drug concentrations inhibiting fractional growth compared to controls.” left out
DLBCL cell lines were grown in exponential growth conditions during the 48 hr of treatment. Cell proliferation was determined by ATP quantification using a luminescent method (CellTiter-Glo, Promega, Madison, Wis.) and Trypan blue dye-exclusion (Sigma, St. Louis, Mo.). Luminescence was measured using the Synergy4 microplate reader (BioTek Instruments, Winooski, Vt.). Standard curves for each cell line were calculated by plotting the cell number (determined by the Trypan blue method) against their luminescence values and number of cells was calculated accordingly. […]

[3] = system: ABC-DLBCL cell lines (HBL1 and TMD8); test: Caspase-3/7 cleavage assay for apoptosis; format: cell-based, human
[4] = biological target: T3, MALT1 active site mutant C464A (Homo sapiens, UniProt Q9UDY8, C464A); test: LC-MS covalent modification, active site mutant; format: binding
T3 construct: MALT1 paracaspase domain (329-728) presented a major peak at 55,988.4 Da
T3 sequence (Q9UDY8 329-728 C464A): as the sequence (Q9UDY8 329-728) above, with C136A counted along it
Protocol: as §3, §4

In the case of `COCCOc1nc(-c2ccc(Cl)c(Cl)c2)n(-c2ccc(NC(=O)CCl)cc2)n1` [MI-2], the “cell proliferation (CFSE dilution)” value (HBL-1, TMD8 and OCI-Ly10) is reported as “substantially inhibited proliferation”, the viability and apoptosis (OCI-Ly1 cells) is reported as “no effect” and the “inhibition of Caspase-3/7 activity or apoptosis” value (Caspase-3/7 activity) is reported as “did not inhibit”. For the same molecule, the “kind of inhibition (time dependence)” value (LZ-MALT1) was “covalent and irreversible inhibition”, the “percent MALT1 inhibition reached” value (LZ-MALT1) was roughly 100% and the GI50 (TMD8 cells; TMD8, read-out: GI50 concentration) was 500 nM. The GI50 (TMD8 cells; TMD8, single dose, 48 hr, read-out: GI50) was 500 nM, the “covalent binding to MALT1” value ([1]; LC-MS) was “bind covalently” and the “increase of the major peak of MALT1 upon incubation” value ([1]; LC-MS, 55,988.4 Da shifted to 56,407.5 Da) was 419.1 Da. For the same molecule, the growth inhibition [2] was “selective for MALT1 dependent cell lines”, the “apoptosis (Caspase-3/7 cleavage)” value [3] was “dose dependent apoptosis within 48 hr” and the “covalent binding to MALT1 C464A” value [4] was “markedly reduced covalent binding”.

— patent US9592223B2, “Small molecule inhibitors of MALT1” (Cornell University, priority 2012, dated 2017)
